The compounds below were run against T1, human IL-17AA (Homo sapiens, UniProt Q16552) (assay: IL-8 release assay in human epithelial keratinocytes adult (HEKa)). Conditions: 3 ng/ml human IL-17AA + 10 ng/ml human TNFalpha, 68-72 h, IL-8 by HTRF, read-out: Rel EC50 L-8 release assay.
T1 construct: host or cells: HEK (human embryonic kidney) cells
T1 sequence (Q16552 24-155) 1: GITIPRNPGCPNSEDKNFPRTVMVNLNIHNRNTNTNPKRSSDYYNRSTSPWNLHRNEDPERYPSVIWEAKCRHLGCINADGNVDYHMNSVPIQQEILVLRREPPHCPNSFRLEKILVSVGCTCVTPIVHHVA
T1 sequence (Q16552 24-155) 2: T1 sequence (Q16552 24-155) 1
Assay type: cell-based
How it was run: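 Adult human keratinocytes in Epilife with HKGS minus hydrocortisone, treated with compound then stimulated with final 3 ng/ml HEK-derived human IL-17AA plus 10 ng/ml TNF-alpha for 68–72 h at 37 °C; TNF-alpha alone defines 100% inhibition. Secreted IL-8 by HTRF; relative IC50 and Emax from four-parameter fits.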

| SMILES | EC50 |
| --- | --- |
| COc1cc(NC(=O)[C@H](Cc2cc(-c3ccc(=O)n(C(C)C)c3)ccc2Cl)NC(=O)c2conc2C)ccc1-c1ccnn1C [Example 70, N-[(1S)-1-[[2-chloro-5-(1-isopropyl-6-oxo-3-pyridyl)phenyl]methyl]-2-[3-methoxy-4-(2-methylpyrazol-3-yl)anilino]-2-oxo-ethyl]-3-methyl-isoxazole-4-carboxamide] | > 1000 nM |
| Cc1nocc1C(=O)N[C@@H](Cc1cc(-c2ccc(=O)n(C(C)C)c2)ccc1Cl)C(=O)Nc1ccc(-c2ccnn2C)c(O)c1 [Example 71, N-[(1S)-1-[[2-chloro-5-(1-isopropyl-6-oxo-3-pyridyl)phenyl]methyl]-2-[3-hydroxy-4-(2-methylpyrazol-3-yl)anilino]-2-oxo-ethyl]-3-methyl-isoxazole-4-carboxamide] | < 100 nM |
| CC(C)n1cc(-c2ccc(Cl)c(CC(NC(=O)c3ccnn3C)C(=O)Nc3ccc(-c4nncn4C4CC4)cc3)c2)ccc1=O (stereo not shown) [Example 72, N-[1-[[2-chloro-5-(1-isopropyl-6-oxo-3-pyridyl)phenyl]methyl]-2-[4-(4-cyclopropyl-1,2,4-triazol-3-yl)anilino]-2-oxo-ethyl]-2-methyl-pyrazole-3-carboxamide] | > 1000 nM |
| Cc1cc(-c2ccc(Cl)c(CC(NC(=O)c3ccnn3C)C(=O)Nc3ccc(-c4nncn4C4CC4)cc3)c2)ccn1 (stereo not shown) [Example 73, N-[1-[[2-chloro-5-(2-methyl-4-pyridyl)phenyl]methyl]-2-[4-(4-cyclopropyl-1,2,4-triazol-3-yl)anilino]-2-oxo-ethyl]-2-methyl-pyrazole-3-carboxamide] | > 1000 nM |
| CC(C)c1cc(-c2ccc(Cl)c(CC(NC(=O)c3ccnn3C)C(=O)Nc3ccc(-c4nncn4C4CC4)cc3)c2)ccn1 (stereo not shown) [Example 74, N-[1-[[2-chloro-5-(2-isopropyl-4-pyridyl)phenyl]methyl]-2-[4-(4-cyclopropyl-1,2,4-triazol-3-yl)anilino]-2-oxo-ethyl]-2-methyl-pyrazole-3-carboxamide] | 100 to 1000 nM |
| CC(C)c1cc(-c2ccc(Cl)c(CC(NC(=O)c3ccnn3C)C(=O)Nc3ccc(-c4nncn4C)cc3)c2)ccn1 (stereo not shown) [Example 75, N-[1-[[2-chloro-5-(2-isopropyl-4-pyridyl)phenyl]methyl]-2-[4-(4-methyl-1,2,4-triazol-3-yl)anilino]-2-oxo-ethyl]-2-methyl-pyrazole-3-carboxamide] | > 1000 nM |
| CC(C)n1cc(-c2ccc(Cl)c(CC(NC(=O)OC(C)(C)C)C(=O)Nc3ccc(-c4cnn[nH]4)cc3)c2)ccc1=O (stereo not shown) [Example 76, tert-butyl N-[1-[[2-chloro-5-(1-isopropyl-6-oxo-3-pyridyl)phenyl]methyl]-2-oxo-2-[4-(1H-triazol-5-yl)anilino]ethyl]carbamate] | > 1000 nM |
| Cc1nncn1-c1ccc(NC(=O)C(Cc2cc(-c3ccc(=O)n(C(C)C)c3)ccc2Cl)NC(=O)c2ccnn2C)cc1 (stereo not shown) [Example 77, N-[1-[[2-chloro-5-(1-isopropyl-6-oxo-3-pyridyl)phenyl]methyl]-2-[4-(3-methyl-1,2,4-triazol-4-yl)anilino]-2-oxo-ethyl]-2-methyl-pyrazole-3-carboxamide] | > 1000 nM |
| Cc1nocc1-c1ccc(NC(=O)C(Cc2cc(-c3ccc(=O)n(C(C)C)c3)ccc2Cl)NC(=O)c2ccnn2C)cc1 (stereo not shown) [Example 78, N-[1-[[2-chloro-5-(1-isopropyl-6-oxo-3-pyridyl)phenyl]methyl]-2-[4-(3-methylisoxazol-4-yl)anilino]-2-oxo-ethyl]-2-methyl-pyrazole-3-carboxamide] | 100 to 1000 nM |
| CC(C)n1cc(-c2ccc(Cl)c(CC(NC(=O)c3ccnn3C)C(=O)Nc3ccc(-c4cncn4C)cc3)c2)ccc1=O (stereo not shown) [Example 79, N-[1-[[2-chloro-5-(1-isopropyl-6-oxo-3-pyridyl)phenyl]methyl]-2-[4-(3-methylimidazol-4-yl)anilino]-2-oxo-ethyl]-2-methyl-pyrazole-3-carboxamide] | 100 to 1000 nM |
| Cc1nocc1C(=O)NC(Cc1cc(-c2ccc(=O)n(C(C)C)c2)ccc1Cl)C(=O)Nc1ccc(-c2cn[nH]c2)cc1 (stereo not shown) [Example 80, N-[1-[[2-chloro-5-(1-isopropyl-6-oxo-3-pyridyl)phenyl]methyl]-2-oxo-2-[4-(1H-pyrazol-4-yl)anilino]ethyl]-3-methyl-isoxazole-4-carboxamide] | 100 to 1000 nM |
| Cc1nocc1C(=O)N[C@@H](Cc1cc(-c2ccnc(C(O)C(C)(C)C)c2)ccc1Cl)C(=O)Nc1ccc(-c2nncn2C)cc1 (stereo partly drawn) [Example 81, N-[(1S)-1-[[2-chloro-5-[2-(1-hydroxy-2,2-dimethyl-propyl)-4-pyridyl]phenyl]methyl]-2-[4-(4-methyl-1,2,4-triazol-3-yl)anilino]-2-oxo-ethyl]-3-methyl-isoxazole-4-carboxamide] | 100 to 1000 nM |
| Cc1nocc1C(=O)N[C@@H](Cc1cc(-c2ccnc(C(O)C(C)C)c2)ccc1Cl)C(=O)Nc1ccc(-c2nncn2C)cc1 (stereo partly drawn) [Example 82, N-[(1S)-1-[[2-chloro-5-[2-(1-hydroxy-2-methyl-propyl)-4-pyridyl]phenyl]methyl]-2-[4-(4-methyl-1,2,4-triazol-3-yl)anilino]-2-oxo-ethyl]-3-methyl-isoxazole-4-carboxamide] | 100 to 1000 nM |
| CC(C)n1cc(-c2ccc(Cl)c(CC(NC(=O)c3ccnn3C)C(=O)Nc3ccc(-c4cnn[nH]4)cc3)c2)ccc1=O (stereo not shown) [Example 83, N-[1-[[2-chloro-5-(1-isopropyl-6-oxo-3-pyridyl)phenyl]methyl]-2-oxo-2-[4-(1H-triazol-5-yl)anilino]ethyl]-2-methyl-pyrazole-3-carboxamide] | 100 to 1000 nM |

Continued, values first:

| EC50 | SMILES |
| --- | --- |
| 100 to 1000 nM | Cc1nocc1C(=O)N[C@@H](Cc1cc(-c2ccnc(C(=O)C(C)(C)C)c2)ccc1Cl)C(=O)Nc1ccc(-c2nncn2C)cc1 [Example 84, N-[(1S)-1-[[2-chloro-5-[2-(2,2-dimethylpropanoyl)-4-pyridyl]phenyl]methyl]-2-[4-(4-methyl-1,2,4-triazol-3-yl)anilino]-2-oxo-ethyl]-3-methyl-isoxazole-4-carboxamide] |
| > 1000 nM | Cc1nocc1C(=O)N[C@@H](Cc1cc(-c2ccnc(C(=O)C3CC3)c2)ccc1Cl)C(=O)Nc1ccc(-c2nncn2C)cc1 [Example 85, N-[(1S)-1-[[2-chloro-5-[2-(cyclopropanecarbonyl)-4-pyridyl]phenyl]methyl]-2-[4-(4-methyl-1,2,4-triazol-3-yl)anilino]-2-oxo-ethyl]-3-methyl-isoxazole-4-carboxamide] |
| > 1000 nM | CC(C)n1cc(-c2ccc(Cl)c(C[C@H](NC(=O)OC(C)(C)C)C(=O)Nc3ccc(-c4nncn4C)cc3)c2)ccc1=O [Example 86, tert-butyl N-[(1S)-1-[[2-chloro-5-(1-isopropyl-6-oxo-3-pyridyl)phenyl]methyl]-2-[4-(4-methyl-1,2,4-triazol-3-yl)anilino]-2-oxo-ethyl]carbamate] |
| 100 to 1000 nM | CC(C)n1cc(-c2ccc(Cl)c(C[C@H](NC(=O)OCc3ccccc3)C(=O)Nc3ccc(-c4nncn4C)cc3)c2)ccc1=O [Example 87, benzyl N-[(1S)-1-[[2-chloro-5-(1-isopropyl-6-oxo-3-pyridyl)phenyl]methyl]-2-[4-(4-methyl-1,2,4-triazol-3-yl)anilino]-2-oxo-ethyl]carbamate] |
| > 1000 nM | Cc1ncnn1-c1ccc(NC(=O)C(Cc2cc(-c3ccc(=O)n(C(C)C)c3)ccc2Cl)NC(=O)c2ccnn2C)cc1 (stereo not shown) [Example 88, N-[1-[[2-chloro-5-(1-isopropyl-6-oxo-3-pyridyl)phenyl]methyl]-2-[4-(5-methyl-1,2,4-triazol-1-yl)anilino]-2-oxo-ethyl]-2-methyl-pyrazole-3-carboxamide] |
| 100 to 1000 nM | Cc1[nH]ncc1-c1ccc(NC(=O)C(Cc2cc(-c3ccc(=O)n(C(C)C)c3)ccc2Cl)NC(=O)c2ccnn2C)cc1 (stereo not shown) [Example 89, N-[1-[[2-chloro-5-(1-isopropyl-6-oxo-3-pyridyl)phenyl]methyl]-2-[4-(5-methyl-1H-pyrazol-4-yl)anilino]-2-oxo-ethyl]-2-methyl-pyrazole-3-carboxamide] |
| 100 to 1000 nM | Cc1[nH]ncc1-c1ccc(NC(=O)C(Cc2cc(-c3ccc(=O)n(C(C)C)c3)ccc2Cl)NC(=O)OC(C)(C)C)cc1 (stereo not shown) [Example 90, tert-butyl N-[1-[[2-chloro-5-(1-isopropyl-6-oxo-3-pyridyl)phenyl]methyl]-2-[4-(5-methyl-1H-pyrazol-4-yl)anilino]-2-oxo-ethyl]carbamate] |
| 100 to 1000 nM | CC(C)n1nccc1C(=O)N[C@@H](Cc1cc(-c2ccc(=O)n(C(C)C)c2)ccc1Cl)C(=O)Nc1ccc(-c2nncn2C)cc1 [Example 91, N-[(1S)-1-[[2-chloro-5-(1-isopropyl-6-oxo-3-pyridyl)phenyl]methyl]-2-[4-(4-methyl-1,2,4-triazol-3-yl)anilino]-2-oxo-ethyl]-2-isopropyl-pyrazole-3-carboxamide] |
| > 1000 nM | CC(C)n1cc(-c2ccc(Cl)c(C[C@H](NC(=O)C3(F)CC3)C(=O)Nc3ccc(-c4nncn4C)cc3)c2)ccc1=O [Example 92, N-[(1S)-1-[[2-chloro-5-(1-isopropyl-6-oxo-3-pyridyl)phenyl]methyl]-2-[4-(4-methyl-1,2,4-triazol-3-yl)anilino]-2-oxo-ethyl]-1-fluoro-cyclopropanecarboxamide] |
| 100 to 1000 nM | Cc1noc(C)c1-c1ccc(NC(=O)C(Cc2cc(-c3ccc(=O)n(C(C)C)c3)ccc2Cl)NC(=O)c2ccnn2C)cc1 (stereo not shown) [Example 93, N-[1-[[2-chloro-5-(1-isopropyl-6-oxo-3-pyridyl)phenyl]methyl]-2-[4-(3,5-dimethylisoxazol-4-yl)anilino]-2-oxo-ethyl]-2-methyl-pyrazole-3-carboxamide] |
| < 100 nM | Cc1n[nH]c(C)c1-c1ccc(NC(=O)C(Cc2cc(-c3ccc(=O)n(C(C)C)c3)ccc2Cl)NC(=O)c2ccnn2C)cc1 (stereo not shown) [Example 94, N-[1-[[2-chloro-5-(1-isopropyl-6-oxo-3-pyridyl)phenyl]methyl]-2-[4-(3,5-dimethyl-1H-pyrazol-4-yl)anilino]-2-oxo-ethyl]-2-methyl-pyrazole-3-carboxamide] |
